Patent publication US4526989A, “1,4-Bis (substituted-amino)-5,8-dihydroxy-anthraquinones and leuco bases thereof” (priority 1979, dated 1985)
Read-outs that look alike come from different tables or passages of the source.

Columns and labels:
[1] = tested on: melanotic melanoma B16; test: Melanotic Melanoma B16 test; type: in vivo, C57BC/6 mice; settings: days 1 through 9
Protocol: The animals used are C57BC/6 mice, all of the same sex, weighing a minimum of 17 g. and all within a 3-g. weight range. There are normally 10 animals per test group. A one-gram portion of melanotic melanoma B16 tumor is homogenized in 10 ml. of cold balanced salt solution and a 0.5-ml. aliquot of the homogenate is implanted intraperitoneally into each of the test mice. The test compounds are administered intraperitoneally on days one through 9 (relative to tumor inoculation) at various doses. The animals are weighed and survivors are recorded on a regular basis for 60 days. The median survival time and the ratio of survival time for treated (T)/control (C) animals are calculated. […] The criterion for efficacy is T/C×100≥125%.

[2] = tested on: lymphocytic leukemia P388; test: Lymphocytic leukemia P388 test (intraperitoneal administration); type: in vivo, DBA/2 mice
Outline: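 DBA/2 mice, single sex, 5-6 per group, inoculated i.p. with 10^6 P388 leukemia cells. Compounds given i.p. at various doses on days 1, 5 and 9; survival followed 30 days, reporting median survival time and treated/control (T/C) survival ratio.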

[3] = Mus musculus, ip, 6 mg./kg. i.p., efficacy ≥125%, read-out: T/C × 100
[4] = 12.5 mg./kg. i.p., days 1, 5 and 9
[5] = 25 mg./kg. i.p., days 1, 5 and 9
[6] = Mus musculus, P388, ip, 12.5 mg./kg. i.p., days 1, 5 and 9, efficacy ≥125%, read-out: T/C × 100
[7] = Mus musculus, P388, ip, 25 mg./kg. i.p., days 1, 5 and 9, efficacy ≥125%, read-out: T/C × 100
[8] = Mus musculus, ip, 25 mg./kg. i.p., efficacy ≥125%, read-out: T/C × 100
[9] = Mus musculus, ip, 50 mg./kg. i.p., efficacy ≥125%, read-out: T/C × 100
[10] = 50 mg./kg. i.p., days 1, 5 and 9
[11] = 100 mg./kg. i.p., days 1, 5 and 9
[12] = 200 mg./kg. i.p., days 1, 5 and 9
[13] = Mus musculus, P388, ip, 50 mg./kg. i.p., days 1, 5 and 9, efficacy ≥125%, read-out: T/C × 100
[14] = Mus musculus, P388, ip, 100 mg./kg. i.p., days 1, 5 and 9, efficacy ≥125%, read-out: T/C × 100

## O=C1C2=C(NCCNCCO)CCC(NCCNCCO)=C2C(=O)c2c(O)ccc(O)c21 [Leuco-1,4-bis[2-(2-hydroxyethylamino)ethylamino]-5,8-dihydroxyanthraquinone]
[1]; 0.37 mg./kg. i.p.
  Median Survival Time: 22.0 days
[1]; 0.75 mg./kg. i.p.
  Median Survival Time: 28.5 days
[1]; 1.5 mg./kg. i.p.
  Median Survival Time: 30.0 days
[1]; 3 mg./kg. i.p.
  Median Survival Time: 20.5 days
[1]; 6 mg./kg. i.p.
  Median Survival Time: 9.5 days
[1]; Mus musculus, ip, 0.37 mg./kg. i.p., efficacy ≥125%, read-out: T/C × 100
  response vs control in vivo at 0.37 mg/kg: 137%
[1]; Mus musculus, ip, 0.75 mg./kg. i.p., efficacy ≥125%, read-out: T/C × 100
  response vs control in vivo at 0.75 mg/kg: 178%
[1]; Mus musculus, ip, 1.5 mg./kg. i.p., efficacy ≥125%, read-out: T/C × 100
  response vs control in vivo at 1.5 mg/kg: 187%
[1]; Mus musculus, ip, 3 mg./kg. i.p., efficacy ≥125%, read-out: T/C × 100
  response vs control in vivo at 3 mg/kg: 128%
[1]; [3]
  response vs control in vivo at 6 mg/kg: 59%
[2]; 0.04 mg./kg. i.p., days 1, 5 and 9
  Median Survival Time: 18.5 days
[2]; 0.09 mg./kg. i.p., days 1, 5 and 9
  Median Survival Time: 21.5 days
[2]; 0.19 mg./kg. i.p., days 1, 5 and 9
  Median Survival Time: 21.5 days
[2]; 0.39 mg./kg. i.p., days 1, 5 and 9
  Median Survival Time: 22.0 days
[2]; 0.78 mg./kg. i.p., days 1, 5 and 9
  Median Survival Time: 28.0 days
[2]; 1.5 mg./kg. i.p., days 1, 5 and 9
  Median Survival Time: > 30.0 days
[2]; 3.1 mg./kg. i.p., days 1, 5 and 9
  Median Survival Time: 26.0 days
[2]; 6.2 mg./kg. i.p., days 1, 5 and 9
  Median Survival Time: 23.0 days
[2]; [4]
  Median Survival Time: 23.5 days
[2]; [5]
  Median Survival Time: 12.0 days
[2]; Mus musculus, P388, ip, 0.19 mg./kg. i.p., days 1, 5 and 9, efficacy ≥125%, read-out: T/C × 100
  response vs control in vivo at 0.19 mg/kg: 205%
[2]; Mus musculus, P388, ip, 0.04 mg./kg. i.p., days 1, 5 and 9, efficacy ≥125%, read-out: T/C × 100
  response vs control in vivo at 0.04 mg/kg: 176%
[2]; Mus musculus, P388, ip, 0.09 mg./kg. i.p., days 1, 5 and 9, efficacy ≥125%, read-out: T/C × 100
  response vs control in vivo at 0.09 mg/kg: 205%
[2]; Mus musculus, P388, ip, 0.39 mg./kg. i.p., days 1, 5 and 9, efficacy ≥125%, read-out: T/C × 100
  response vs control in vivo at 0.39 mg/kg: 209%
[2]; Mus musculus, P388, ip, 0.78 mg./kg. i.p., days 1, 5 and 9, efficacy ≥125%, read-out: T/C × 100
  response vs control in vivo at 0.78 mg/kg: 267%
[2]; Mus musculus, P388, ip, 1.5 mg./kg. i.p., days 1, 5 and 9, efficacy ≥125%, read-out: T/C × 100
  response vs control in vivo at 1.5 mg/kg: > 286%
[2]; Mus musculus, P388, ip, 3.1 mg./kg. i.p., days 1, 5 and 9, efficacy ≥125%, read-out: T/C × 100
  response vs control in vivo at 3.1 mg/kg: 248%
[2]; Mus musculus, P388, ip, 6.2 mg./kg. i.p., days 1, 5 and 9, efficacy ≥125%, read-out: T/C × 100
  response vs control in vivo at 6.2 mg/kg: 219%
[2]; [6]
  response vs control in vivo at 12.5 mg/kg: 224%
[2]; [7]
  response vs control in vivo at 25 mg/kg: 114%

## CC(CNC1=C2C(=O)c3c(O)ccc(O)c3C(=O)C2=C(NCC(C)N(C)C)CC1)N(C)C (centres unmarked) [Leuco-1,4-bis[2-dimethylaminopropylamino]-5,8-dihydroxyanthraquinone]
[1]; 6 mg./kg. i.p.
  Median Survival Time: 19.5 days
[1]; 12.5 mg./kg. i.p.
  Median Survival Time: 20.5 days
[1]; 25 mg./kg. i.p.
  Median Survival Time: 24.5 days
[1]; 50 mg./kg. i.p.
  Median Survival Time: 28.5 days
[1]; 100 mg./kg. i.p.
  Median Survival Time: 21.0 days
[1]; [3]
  response vs control in vivo at 6 mg/kg: 115%
[1]; Mus musculus, ip, 12.5 mg./kg. i.p., efficacy ≥125%, read-out: T/C × 100
  response vs control in vivo at 12.5 mg/kg: 121%
[1]; [8]
  response vs control in vivo at 25 mg/kg: 144%
[1]; [9]
  response vs control in vivo at 50 mg/kg: 168%
[1]; Mus musculus, ip, 100 mg./kg. i.p., efficacy ≥125%, read-out: T/C × 100
  response vs control in vivo at 100 mg/kg: 124%
[2]; [4]
  Median Survival Time: 11.0 days
[2]; [5]
  Median Survival Time: 13.0 days
[2]; [10]
  Median Survival Time: 14.0 days
[2]; [11]
  Median Survival Time: 15.0 days
[2]; [12]
  Median Survival Time: 18.0 days
[2]; Mus musculus, P388, ip, read-out: T/C × 100
  response vs control in vivo at 200 mg/kg: 200%
[2]; [6]
  response vs control in vivo at 12.5 mg/kg: 122%
[2]; [7]
  response vs control in vivo at 25 mg/kg: 144%
[2]; [13]
  response vs control in vivo at 50 mg/kg: 156%
[2]; [14]
  response vs control in vivo at 100 mg/kg: 167%

## CN(C)CCCNc1ccc(NCCCN(C)C)c2c1C(=O)c1c(O)ccc(O)c1C2=O [1,4-Bis[(3-dimethylaminopropyl)amino]-5,8-dihydroxyanthraquinone]
[1]; 25 mg./kg. i.p.
  Median Survival Time: 20.0 days
[1]; [8]
  response vs control in vivo at 25 mg/kg: 125%
[2]; 12 mg./kg. i.p., days 1, 5 and 9
  Median Survival Time: 15.0 days
[2]; [5]
  Median Survival Time: 15.5 days
[2]; [10]
  Median Survival Time: 15.5 days
[2]; Mus musculus, P388, ip, 12 mg./kg. i.p., days 1, 5 and 9, efficacy ≥125%, read-out: T/C × 100
  response vs control in vivo at 12 mg/kg: 125%
[2]; [7]
  response vs control in vivo at 25 mg/kg: 129%
[2]; [13]
  response vs control in vivo at 50 mg/kg: 129%

## NCCNCCNc1ccc(NCCNCCN)c2c1C(=O)c1c(O)ccc(O)c1C2=O [1,4-Bis[2-(2-aminoethylamino)ethylamino]-5,8-dihydroxyanthraquinone]
[1]; 6 mg./kg. i.p.
  Median Survival Time: 20.0 days
[1]; 12 mg./kg. i.p.
  Median Survival Time: 22.0 days
[1]; 25 mg./kg. i.p.
  Median Survival Time: 22.5 days
[1]; 50 mg./kg. i.p.
  Median Survival Time: 24.0 days
[1]; [3]
  response vs control in vivo at 6 mg/kg: 125%
[1]; Mus musculus, ip, 12 mg./kg. i.p., efficacy ≥125%, read-out: T/C × 100
  response vs control in vivo at 12 mg/kg: 138%
[1]; [8]
  response vs control in vivo at 25 mg/kg: 141%
[1]; [9]
  response vs control in vivo at 50 mg/kg: 150%
[2]; [5]
  Median Survival Time: 13.0 days
[2]; [10]
  Median Survival Time: 14.0 days
[2]; [11]
  Median Survival Time: 16.0 days
[2]; [12]
  Median Survival Time: 17.0 days
[2]; [7]
  response vs control in vivo at 25 mg/kg: 124%
[2]; [13]
  response vs control in vivo at 50 mg/kg: 133%
[2]; [14]
  response vs control in vivo at 100 mg/kg: 152%
[2]; Mus musculus, P388, ip, 200 mg./kg. i.p., days 1, 5 and 9, efficacy ≥125%, read-out: T/C × 100
  response vs control in vivo at 200 mg/kg: 162%
